In US20120213714A1, “Method and compositions as an adjunct for the prevention and treatment of periodontal disease” (priority 2011, published 2012):
Converted amounts (≈) assume the structure as drawn.

Test system: Porphyromonas gingivalis
Assay: Porphyromonas gingivalis overnight culture, colony count on blood agar vs control
Assay type: cell-based
Method: After the overnight culture, the medium was diluted 1:10000 times, 5 μl of the diluted culture was applied to blood agar plate and cultured overnight. Calculated the number of colonies on the plates and compared with the control group to obtain the percentage of inhibition.

IC50 (Porphyromonas gingivalis, overnight culture at 37° C, colonies counted vs control, read-out: IC50 / final concentration inhibiting 50% of Porphyromonas gingivalis growth): ~5 µg/mL (≈ 18 µM)
Compound: CCCCC/C=C\C/C=C\C/C=C\CCCCC(=O)O [omega-6 fatty acids (GLA), γ-linolenic acid]
inhibition of growth of Porphyromonas gingivalis (final concentration of 1 μg/ml): significantly inhibit the growth
